We go through 13 compounds from patent US9351974B2, “Substituted pteridinones for the treatment of cancer” (OSI Pharmaceuticals, LLC, priority 2011, dated 2016).

A word on the IC50: it is the point on the concentration scale where inhibition reaches its midpoint.

The target in this assay is T1, His-tagged full-length RSK2 (RPS6KA3) (Homo sapiens, UniProt P51812).
T1 construct: His-tagged full-length RSK2 (RPS6KA3, Invitrogen PV3323); His; purchased Invitrogen PV3323
T1 sequence (P51812 whole entry): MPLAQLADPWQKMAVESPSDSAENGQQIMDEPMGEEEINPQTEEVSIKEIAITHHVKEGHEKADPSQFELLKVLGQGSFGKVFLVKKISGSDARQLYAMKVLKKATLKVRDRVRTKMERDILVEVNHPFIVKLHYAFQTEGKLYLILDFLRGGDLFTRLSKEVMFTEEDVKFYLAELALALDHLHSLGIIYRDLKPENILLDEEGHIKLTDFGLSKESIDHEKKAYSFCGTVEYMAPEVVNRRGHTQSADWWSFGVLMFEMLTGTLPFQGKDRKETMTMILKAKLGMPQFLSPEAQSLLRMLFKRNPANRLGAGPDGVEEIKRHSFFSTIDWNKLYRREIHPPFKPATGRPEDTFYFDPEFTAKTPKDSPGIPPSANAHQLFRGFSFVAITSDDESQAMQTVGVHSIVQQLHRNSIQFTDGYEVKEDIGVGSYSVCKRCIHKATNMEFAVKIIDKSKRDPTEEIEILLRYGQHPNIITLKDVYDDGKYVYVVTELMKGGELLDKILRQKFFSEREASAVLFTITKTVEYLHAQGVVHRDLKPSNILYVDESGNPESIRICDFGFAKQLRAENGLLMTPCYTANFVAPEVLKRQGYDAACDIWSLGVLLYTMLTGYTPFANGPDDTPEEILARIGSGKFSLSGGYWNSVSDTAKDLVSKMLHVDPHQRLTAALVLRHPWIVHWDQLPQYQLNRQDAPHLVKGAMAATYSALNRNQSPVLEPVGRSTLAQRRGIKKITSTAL
The assay can be described thus: RSK2 Omnia Assay for compound IC50 determination. In kind it is biochemical. As to conditions: ATP 15 μM, n=2, read-out: Mean RSK2 Biochem IC50. An outline of the steps:
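Initial-rate slopes from continuous kinetic reads were fitted to a four-parameter equation for IC50 (n=2). Ki was then derived by Cheng-Prusoff assuming ATP-competitive inhibition. Reactions contained 15 μM ATP (Km 16.3 μM), 5 μM Omnia ST Peptide 6, and […] in 50 mM HEPES pH 7.5, 10 mM MgCl2, 1 mM DTT, 1% DMSO. Compounds spanned 11 threefold steps, […] final.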
Consider `CC(C)CCN1c2nc(Nc3ccc4[nH]ncc4c3)ncc2N(c2ccccc2)C(=O)C1(C)C` [Example 70, 2-(1H-indazol-5-ylamino)-7,7-dimethyl-8-(3-methylbutyl)-5-phenyl-7,8-dihydropteridin-6(5H)-one], for which the IC50 was not above 100 nM. The value for `C[C@@H]1C(=O)N(c2cccc(C#N)c2)c2cnc(Nc3ccc4[nH]ncc4c3)nc2N1CC1CCC1` [Example 71, 3-[(7R)-8-(cyclobutylmethyl)-2-(1H-indazol-5-ylamino)-7-methyl-6-oxo-7,8-dihydropteridin-5(6H)-yl]benzonitrile] was not above 100 nM; that for `C[C@@H]1C(=O)N(c2ccccc2)c2cnc(Nc3ccc4[nH]ncc4c3)nc2N1CC1CCCCC1` [Example 72, (7R)-8-(cyclohexylmethyl)-2-(1H-indazol-5-ylamino)-7-methyl-5-phenyl-7,8-dihydropteridin-6(5H)-one] was not above 100 nM; that for `C[C@@H]1C(=O)N(c2ccccc2)c2cnc(Nc3ccc4[nH]ncc4c3)nc2N1CCN(C)C` [Example 73, (7R)-8-[2-(dimethylamino)ethyl]-2-(1H-indazol-5-ylamino)-7-methyl-5-phenyl-7,8-dihydropteridin-6(5H)-one] was more than 1000 nM.

`C[C@@H]1C(=O)N(c2ccccc2)c2cnc(Nc3ccc4[nH]ncc4c3)nc2N1CC1CCOCC1` [Example 74, (7R)-2-(1H-indazol-5-ylamino)-7-methyl-5-phenyl-8-(tetrahydro-2H-pyran-4-ylmethyl)-7,8-dihydropteridin-6(5H)-one]: the IC50 is not above 100 nM. In the case of `C[C@@H]1C(=O)N(c2ccccc2)c2cnc(Nc3ccc4[nH]ncc4c3)nc2N1CC1CCCC1` [Example 75, (7R)-8-(cyclopentylmethyl)-2-(1H-indazol-5-ylamino)-7-methyl-5-phenyl-7,8-dihydropteridin-6(5H)-one], the IC50 is not above 100 nM. For `C[C@@H]1C(=O)N(c2ccccc2)c2cnc(Nc3ccc4[nH]ncc4c3)nc2N1Cc1ccccc1` [Example 76, (7R)-8-benzyl-2-(1H-indazol-5-ylamino)-7-methyl-5-phenyl-7,8-dihydropteridin-6(5H)-one] the value was not above 100 nM; for `C[C@@H]1C(=O)N(c2ccccc2)c2cnc(Nc3ccc4[nH]ncc4c3)nc2N1CCCO` [Example 77, (7R)-8-(3-hydroxypropyl)-2-(1H-indazol-5-ylamino)-7-methyl-5-phenyl-7,8-dihydropteridin-6(5H)-one], 100 to 1000 nM; for `C[C@@H]1C(=O)N(c2ccccc2)c2cnc(Nc3ccc4[nH]ncc4c3)nc2N1CC1CCNCC1` [Example 78, (7R)-2-(1H-indazol-5-ylamino)-7-methyl-5-phenyl-8-(piperidin-4-ylmethyl)-7,8-dihydropteridin-6(5H)-one], more than 1000 nM.

In the case of `CC(C)CN1c2nc(Nc3ccc4[nH]ncc4c3)ncc2N(c2ccccc2)C(=O)[C@H]1C` [Example 79, (7R)-2-(1H-indazol-5-ylamino)-7-methyl-8-(2-methylpropyl)-5-phenyl-7,8-dihydropteridin-6(5H)-one], the IC50 was not above 100 nM. As to `C[C@@H]1C(=O)N(c2cccc(C#N)c2)c2cnc(Nc3ccc4[nH]ncc4c3)nc2N1CC1CCOCC1` [Example 80, 3-[(7R)-2-(1H-indazol-5-ylamino)-7-methyl-6-oxo-8-(tetrahydro-2H-pyran-4-ylmethyl)-7,8-dihydropteridin-5(6H)-yl]benzonitrile], the IC50 was not above 100 nM. On to `C[C@@H]1C(=O)N(c2cccc(C#N)c2)c2cnc(Nc3ccc4[nH]ncc4c3)nc2N1CC1CCCC1` [Example 81, 3-[(7R)-8-(cyclopentylmethyl)-2-(1H-indazol-5-ylamino)-7-methyl-6-oxo-7,8-dihydropteridin-5(6H)-yl]benzonitrile], for which the half-inhibitory concentration (IC50) was not above 100 nM. The value for `C[C@@H]1C(=O)N(c2cccc(C#N)c2)c2cnc(Nc3ccc4[nH]ncc4c3)nc2N1CC1CCOC1` (stereo partly drawn) [Example 82, 3-[(7R)-2-(1H-indazol-5-ylamino)-7-methyl-6-oxo-8-(tetrahydrofuran-3-ylmethyl)-7,8-dihydropteridin-5(6H)-yl]benzonitrile] was not above 100 nM.
